The term IC50 denotes the point on the concentration scale where inhibition reaches its midpoint. Higher therefore signals weaker potency in that assay.

This passage reports IC50 and cytotoxicity results from patent US5753691A, “Agents for inhibiting the production of IL-1β and the release of TNFα” (Nisshin Flour Milling Co., Ltd., priority 1994, dated 1998).

One data set has as its system TNFα. Nature of the data set: Inhibition of TNFα release from THP-1 cells stimulated with PMA and polyinosic acid (human TNFα ELISA). Format: cell-based. As to conditions: 3×10^6 cells/ml, compound 1 h, then PMA 2 μg/ml and polyinosic acid 200 μg/ml, 24 h, supernatant. The procedure: The pyrrolidinone derivatives of the present invention were evaluated for the activity to inhibit the release of TNFα, in accordance with the following method.
Then, PMA and polyinosic acid were added to each well so as to provide final concentrations of 2 μg/ml and 200 μg/ml, respectively. […] After incubation, a supernatant was recovered from each well by means of Pipetteman available from Gilson Co., Ltd. An amount of TNFα in the supernatant was assayed by means of the human TNFα ELISA kit available from Genzyme Co., Ltd.
The results are summarized below, expressed in terms of IC50 values in μM unit, wherein the amount of TNFα released at the time of no addition of the pyrrolidinone derivatives is defined as 100 and the concentration of each test compound of the present invention to inhibit 50% the TNFα release is defined as IC50.

Another data set deals with IL-1β. Nature of the data set: Inhibition of IL-1β production in THP-1 cells stimulated with PMA and polyinosic acid (enzyme immunoassay). Format: cell-based. As to conditions: Homo sapiens, 3×10^6 cells/ml, compound 1 h, then PMA 2 μg/ml and polyinosic acid 200 μg/ml, 24 h, supernatant. The procedure:
The pyrrolidinone derivatives of the present invention were evaluated for the activity to inhibit the production of IL-1β, in accordance with the following method.
Then, 12-o-tetradecanoylphorbol-13-acetate (PMA) and polyinosic acid were added to each well so as to provide final concentrations of 2 μg/ml and 200 μg/ml, respectively. […] After incubation, a supernatant was recovered from each well by means of Pipetteman available from Gilson Co., Ltd. Then, an amount of the IL-1β in the supernatant was assayed by means of the enzyme immunoassay kit available from Cayman Chemical Co., Ltd.
The results are summarized below, expressed in terms of IC50 values in μM unit, wherein the amount of IL-1β produced at the time of no addition of the pyrrolidinone derivative is defined as 100 and the concentration of each test compound of the present invention to inhibit 50% the IL-1β production is defined as IC50.

With `O=C(C=Cc1ccccc1)N1CCCC1=O` [Compound 1], the IC50 in the data set with TNFα came out at 2.8 µM; in the data set with IL-1β, 26 µM.
In the data set with IL-1β, `COc1ccccc1C=CC(=O)N1CCCC1=O` [Compound 2] yielded an IC50 of 86 µM.
Turning to `COc1cccc(C=CC(=O)N2CCCC2=O)c1` [Compound 3], half-maximal inhibition in the data set with IL-1β (IC50) required 73 µM.
The molecule `COc1ccc(C=CC(=O)N2CCCC2=O)cc1` [Compound 4] had an IC50 in the data set with IL-1β of 73 µM.
On to `COc1ccc(C=CC(=O)N2CCCC2=O)cc1OC` [Compound 5], for which the IC50 in the data set with TNFα came to 16 µM; with IL-1β it was 69 µM.
Consider `O=C(C=Cc1ccc([N+](=O)[O-])cc1)N1CCCC1=O` [Compound 9], for which the IC50 in the data set on TNFα stood at 3 µM; in the data set on IL-1β, 13 µM.
As to `O=C(C=Cc1ccc([N+](=O)[O-])cc1[N+](=O)[O-])N1CCCC1=O` [Compound 10], the cytotoxicity entry with THP-1 cells was “no cytotoxicity was found”.
For `O=C(C=Cc1ccccn1)N1CCCC1=O` [Compound 12], the figures for the IC50 in the data set on TNFα and in the data set on IL-1β were 4.6 µM and 1.4 µM, respectively.
For `O=C(C=Cc1cccnc1)N1CCCC1=O` [Compound 13], the IC50 with TNFα was 30 µM; in the data set with IL-1β it was 48 µM.
With `O=C(C=Cc1ccncc1)N1CCCC1=O` [Compound 14], in the data set on IL-1β, the IC50 came to 42 µM.
